In patent publication US20020161528A1, “Tool for lipophilicity determination in drug discovery basic and neutral compounds” (Pfizer Inc., priority 2001, published 2002):
“And” between values parts separate entries of the source, which are not always exact repeats. Equal entries are not always repeated. Where two headings read alike, the source gives them in different places.

Key:
physchem = details: pH 7.4
[1] = Shake-vial logDoct, Procedure A (octanol / MOPS buffer); type: physicochemical; details: concentration decreased from 1.5 to 0.1 mg, 50:2 octanol:buffer
Excerpt: (§1) The vials were shaken at least overnight.

[2] = literature value (ref. 22); cited from earlier work
[3] = Semi-automated shake-vial logDoct, Procedure B (1:1 n-octanol / phosphate buffer pH 7.4); type: physicochemical; details: duplicate determinations
Excerpt: as §1

[4] = Reference logDoct at pH 7.4: literature shake-flask or countercurrent data, shake-vial and pH-metric determinations, averaged
[5] = pH 7.4
[6] = Table 1, own shake-vial (Procedure A/B) and/or potentiometric determinations only
[7] = Table 1, capacity factor extrapolated to 0% methanol, average of three to five determinations
[8] = Table 1, average of own shake-vial/potentiometric determinations and literature references

SMILES	chromatographic logD (physchem)	logDoct [1]	logDoct [3]	logDoct [4, 6]	log k′w [5, 7]	logDoct [2]	logDoct [4, 8]	log k′w [5]
O=c1n(CCCN2CCN(c3cccc(Cl)c3)CC2)nc2ccccn12 [Trazodone]	2.97			2.54	2.45			
COc1ccc2c(c1)N(C[C@H](C)CN(C)C)c1ccccc1S2 [Methotrimeprazine]	2.57			2.77	2.10			
CNS(=O)(=O)Cc1ccc2[nH]cc(CCN(C)C)c2c1 [Sumatriptan]	-0.4				−0.54		−1.00	
Oc1ncnc2[nH]ncc12 [Allopurinol]	-0.1				−0.27		−0.44	
CC(C)N(CCC(C(N)=O)(c1ccccc1)c1ccccn1)C(C)C (stereo not shown) [Disopyramide]	-1.15			−0.66	−1.21			
CN1CCCC1c1cccnc1 (stereo not shown) [Nicotine]	0.23			0.40				0.02

The next lines start with results.

chromatographic logD (physchem)	logDoct [1]	logDoct [3]	logDoct [4, 6]	log k′w [5, 7]	SMILES	logDoct [2]	logDoct [4, 8]	log k′w [5]
-0.3	−1.6 to −1.0	−0.1 and −0.3			N=C(N)NCC1COc2ccccc2O1 (stereo not shown) [guanoxan]	−0.83		
0.8			0.74	0.53	Cc1ncc(-c2csc(N=C(N)N)n2)[nH]1 [Zaltidine]			
0.04			−0.61	−0.15	CN1CCN(CC(=O)N2c3ccccc3C(=O)Nc3cccnc32)CC1 [Pirenzepine]			
0.5			0.43	0.26	NS(=O)(=O)c1cc2c(cc1Cl)NC(C(Cl)Cl)NS2(=O)=O (stereo not shown) [Trichlormethiazide]			
